Measurements published in patent US10227606B2, “Method of increasing photosynthesis and yield of plants” (NATIONAL UNIVERSITY CORPORATION NAGOYA UNIVERSITY, priority 2013, dated 2019).

Tested on: stomata (guard cells)
Assay: Measurement of the stomatal aperture in isolated epidermal tissue
Type: cell-based, Arabidopsis thaliana
Details: 20 μM ABA, 2.5 hours under illumination; AHA2-transgenic and wild-type plants
Experimental: The stomatal aperture was measured according to a conventional method (27) with slight modifications. Epidermal tissue isolated from plants 3 to 4 weeks after planting overnight dark-adapted plants was incubated in basal buffer (5 mM MES-BTP, pH 6.5, 50 mM KCl, and 0.1 mM CaCl2). To inhibit light-induced stomatal opening using ABA, the epidermal tissue was incubated under blue light/red light (10 μmol m^−2s^−1 blue light (Stick-B-32; EYELA, Tokyo, Japan) superimposed on 50 μmol ^m−2s^−1 background red light (LED-R; EYELA)) for 2.5 hours at 24° C. in the presence or absence or 20 μM ABA. The stomatal aperture in the abaxial epidermis was measured using a microscope. Stomatal aperture was represented as the average and standard error (SEM) for 25 stomata. Results were confirmed by blind reassessment by another researcher.

CC1=CC(=O)CC(C)(C)[C@@]1(O)/C=C/C(C)=C\C(=O)O [ABA, abscisic acid]
effect of ABA on light-induced stomatal opening: inhibited
